Assay results taken from patent US20250074897A1, “PYRIDAZINONES AS PARP7 INHIBITORS” (Ribon Therapeutics, Inc., priority 2019, published 2025).

These compounds were tested against T1, PARP7 (TIPARP) (Homo sapiens, UniProt Q7Z3E1) (assay: Enzymatic assay for inhibition of PARP7: TR-FRET displacement of biotinylated Probe A from the TIPARP active site). Details: 6 nM TIPARP, 2 nM Probe A, 25° C., 30 min incubation with test compound.
T1 sequence (Q7Z3E1 1-657): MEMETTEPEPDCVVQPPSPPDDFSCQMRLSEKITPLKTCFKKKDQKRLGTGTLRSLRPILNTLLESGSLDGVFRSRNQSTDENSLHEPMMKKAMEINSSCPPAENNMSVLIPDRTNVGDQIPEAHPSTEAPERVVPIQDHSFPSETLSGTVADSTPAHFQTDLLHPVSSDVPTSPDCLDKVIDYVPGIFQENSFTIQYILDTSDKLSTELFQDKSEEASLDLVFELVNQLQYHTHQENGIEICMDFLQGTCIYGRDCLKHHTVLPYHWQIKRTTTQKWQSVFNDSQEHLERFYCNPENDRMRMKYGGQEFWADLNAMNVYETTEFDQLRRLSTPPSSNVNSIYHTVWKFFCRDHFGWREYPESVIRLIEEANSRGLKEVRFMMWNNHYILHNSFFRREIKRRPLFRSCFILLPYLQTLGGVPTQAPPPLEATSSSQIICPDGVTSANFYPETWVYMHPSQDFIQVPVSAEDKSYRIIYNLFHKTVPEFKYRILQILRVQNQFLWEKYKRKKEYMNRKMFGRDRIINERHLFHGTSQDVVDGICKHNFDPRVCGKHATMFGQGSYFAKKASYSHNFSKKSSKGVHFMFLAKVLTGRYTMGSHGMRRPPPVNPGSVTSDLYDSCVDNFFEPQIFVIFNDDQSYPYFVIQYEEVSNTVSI
Assay type: binding
Procedure: Enzymatic Assay for Inhibition of PARP7
Displacement of Probe A, a biotinylated probe binding to the TIPARP active site, was measured using a time-resolved fluorescence energy transfer (TR-FRET) assay. 20 nL of a dose response curve of each test compound was spotted in black 384-well polystyrene proxiplates (Perkin Elmer) using a Mosquito (TTP Labtech). Reactions were performed in a 8 μL volume by adding 6 μL of TIPARP and Probe A in assay buffer (20 mM HEPES pH=8, 100 mM NaCl, 0.1% bovine serum albumin, 2 mM DTT and 0.002% Tween20), incubating with test compound at 25° C. for 30 min, then adding 2 μL of ULight-anti 6xHis and LANCE Eu-W1024 labeled streptavidin (Perkin Elmer). The final concentrations of TIPARP and Probe A were 6 nM and 2 nM, respectively. The final concentration of ULight-anti 6xHis and LANCE Eu-W1024 labeled streptavidin were 4 nM and 0.25 nM, respectively. Reactions were incubated at 25° C. for an additional 30 min, then read on an Envision platereader equipped with a LANCE/DELFIA top mirror (Perkin Elmer) using excitation of 320 nm and emission of 615 nm and […] with a 90 μs delay. The ratio of the 665/615 nm emission were calculated for each well to determine the amount of complex of TIPARP and Probe A in each well. Control wells containing a negative control of 0.25% DMSO vehicle or a positive control of 100 μM 5-(5-(piperidin-4-yloxy)isoindolin-2-yl)-4-(trifluoromethyl)pyridazin-3(2H)-one were used to calculate the % inhibition as described below:
where TRFempd is the TR-FRET ratio from the compound treated well, TRFmin is the TR-FRET ratio from the 5-(5-(piperidin-4-yloxy)isoindolin-2-yl)-4-(trifluoromethyl)pyridazin-3(2H)-one-treated positive control well and TRFmax is the TR-FRET ratio from the DMSO-treated negative control well.
The % inhibition values were plotted as a function of compound concentration and the following 4-parameter fit was applied to derive the IC50 values:
where top and bottom are normally allowed to float, but may be fixed at 100 or 0 respectively in a 3-parameter fit. The Hill Coefficient is normally allowed to float but may also be fixed at 1 in a 3-parameter fit. Y is the % inhibition and X is the compound concentration.

IC50, < 100 nM:
C[C@@H](COC[C@@H](O)C(=O)N1CCN(c2ncc(C(F)(F)F)cn2)CC1)Nc1cn[nH]c(=O)c1C(F)(F)F (single isomer, unassigned) [Example 1A]
C[C@@H](COC[C@H](O)C(=O)N1CCN(c2ncc(C(F)(F)F)cn2)CC1)Nc1cn[nH]c(=O)c1C(F)(F)F (single isomer, unassigned) [Example 1B]
C[C@@H](COC[C@@H](O)C(=O)N1CCN(c2ncc(Cl)cn2)CC1)Nc1cn[nH]c(=O)c1C(F)(F)F (single isomer, unassigned) [Example 6A]
C[C@@H](COC[C@H](O)C(=O)N1CCN(c2ncc(Cl)cn2)CC1)Nc1cn[nH]c(=O)c1C(F)(F)F (single isomer, unassigned) [Example 6B]
C[C@@H](COC[C@@H](O)C(=O)N1CCN(c2ncc(C(F)(F)F)cn2)CC1)Oc1cn[nH]c(=O)c1C(F)(F)F (single isomer, unassigned) [Example 7A]
C[C@@H](COC[C@H](O)C(=O)N1CCN(c2ncc(C(F)(F)F)cn2)CC1)Oc1cn[nH]c(=O)c1C(F)(F)F (single isomer, unassigned) [Example 7B]
C[C@@H](COC[C@@H](O)C(=O)N1CCN(c2ncc(C(F)(F)F)cn2)CC1)Oc1cn[nH]c(=O)c1Br (single isomer, unassigned) [Example 12A]
C[C@@H](COC[C@H](O)C(=O)N1CCN(c2ncc(C(F)(F)F)cn2)CC1)Oc1cn[nH]c(=O)c1Br (single isomer, unassigned) [Example 12B]
[2H]C1([2H])N(C(=O)[C@H](O)COC[C@H](C)Nc2cn[nH]c(=O)c2C(F)(F)F)C([2H])([2H])C([2H])([2H])N(c2ncc(C(F)(F)F)cn2)C1([2H])[2H] (single isomer, unassigned) [Example 13A]
[2H]C1([2H])N(C(=O)[C@@H](O)COC[C@H](C)Nc2cn[nH]c(=O)c2C(F)(F)F)C([2H])([2H])C([2H])([2H])N(c2ncc(C(F)(F)F)cn2)C1([2H])[2H] (single isomer, unassigned) [Example 13B]
O=C([C@H](O)COC[C@@H]1c2ccccc2CN1c1cn[nH]c(=O)c1C(F)(F)F)N1CCN(c2ncc(C(F)(F)F)cn2)CC1 (single isomer, unassigned) [Example 17A]
O=C([C@H](O)COC[C@H]1c2ccccc2CN1c1cn[nH]c(=O)c1C(F)(F)F)N1CCN(c2ncc(C(F)(F)F)cn2)CC1 (single isomer, unassigned) [Example 17B]
O=C([C@@H](O)COC[C@@H]1c2ccccc2CN1c1cn[nH]c(=O)c1C(F)(F)F)N1CCN(c2ncc(C(F)(F)F)cn2)CC1 (single isomer, unassigned) [Example 17C]
O=C([C@@H](O)COC[C@H]1c2ccccc2CN1c1cn[nH]c(=O)c1C(F)(F)F)N1CCN(c2ncc(C(F)(F)F)cn2)CC1 (single isomer, unassigned) [Example 17D]
C[C@@H](COC[C@@H](O)C(=O)N1CCN(c2cnc(C(F)(F)F)cn2)CC1)Nc1cn[nH]c(=O)c1C(F)(F)F [Example 2A, 5-(((S)-1-((R)-2-hydroxy-3-oxo-3-(4-(5-(trifluoromethyl)pyrazin-2-yl)piperazin-1-yl)propoxy)propan-2-yl)amino)-4-(trifluoromethyl)pyridazin-3(2H)-one]
C[C@@H](COC[C@H](O)C(=O)N1CCN(c2cnc(C(F)(F)F)cn2)CC1)Nc1cn[nH]c(=O)c1C(F)(F)F [Example 2B, 5-(((S)-1-((S)-2-hydroxy-3-oxo-3-(4-(5-(trifluoromethyl)pyrazin-2-yl)piperazin-1-yl)propoxy)propan-2-yl)amino)-4-(trifluoromethyl)pyridazin-3(2H)-one]
